Data taken from patent publication US5122520A, “Acid addition salts of amidated taurine or glycine, their preparation and use” (Sandoz Ltd., priority 1988, dated 1992).

Assay: Bioavailability of salmon calcitonin after nasal application (plasma concentration by radio-immuno-assay)
Design: species or system rhesus monkeys
Conditions: rhesus monkey, in vivo
Procedure: The drug compound concentration was measured in the plasma by radio-immuno-assay. The salmon calcitonin determinations were carried out up to 6 hours after application.

- bioavailability as % of the value measured with the best known resorption promoter: 67%
- bioavailability as % of the values found after application without resorption promoter: > 400%
Substance: salmon calcitonin
